# Measurements as given in the supplement of paper PMC7021759.
# System: SK-N-MM (SKNMM-MYCN, doxycycline-inducible MYCN)
# Assay: area under dose-response curve (CellTiter-Glo viability normalised to plate controls) (AUC (arbitrary units)); higher = more loss of viability; extreme values may be limits of the assay
# How it was run: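 SK-N-MM cells carrying doxycycline-inducible MYCN were seeded in 96-well plates at 1250 cells/100 μL, and about 24 h later they received medium with or without doxycycline. Two days after that, 10-point 1:3 dilution series of compounds were added by pin transfer (890-fold dilution of stock), with a second dose on day 4. CellTiter-Glo luminescence was measured 3 or 8 days after drugging. Log2 signals were scaled against the positive and negative controls on each plate and used to calculate the area under the dose-response curve.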
# [1] = MYCN induction (doxycycline): +doxycycline (MYCN induced), time after drugging: 3 days
# [2] = MYCN induction (doxycycline): +doxycycline (MYCN induced), time after drugging: 8 days
# [3] = MYCN induction (doxycycline): no doxycycline (MYCN not induced), time after drugging: 3 days
# [4] = MYCN induction (doxycycline): no doxycycline (MYCN not induced), time after drugging: 8 days
SMILES,area under dose-response curve [1],area under dose-response curve [2],area under dose-response curve [3],area under dose-response curve [4]
Cc1cnc(NC(=O)Nc2cc(Br)c(C)cc2OC[C@@H]2CNCCO2)cn1 [RABUSERTIB],89.5,171,31,95.5
Cc1sc2c(c1C)C(c1ccc(Cl)cc1)=N[C@@H](CC(N)=O)c1nnc(C)n1-2 [CPI-203],2.86,38.6,8.36,30.9
N#CC[C@H](C1CCCC1)n1cc(-c2ncnc3[nH]ccc23)cn1 [RUXOLITINIB],27.6,121,22.3,100
Nc1nccc2c1ncn2[C@@H]1C=C(CO)[C@@H](O)[C@H]1O [3-DEAZANEPLANOCIN],15.9,119,10.3,40.9
CC(=O)O[C@@]12CO[C@@H]1C[C@H](O)[C@@]1(C)C(=O)[C@H](O)C3=C(C)[C@@H](OC(=O)[C@H](O)[C@@H](NC(=O)OC(C)(C)C)c4ccccc4)C[C@@](O)([C@@H](OC(=O)c4ccccc4)[C@H]21)C3(C)C [DOCETAXEL],142,292,107,183
CCCS(=O)(=O)Nc1ccc(F)c(C(=O)c2c[nH]c3ncc(-c4ccc(Cl)cc4)cc23)c1F [VEMURAFENIB],18.3,24.6,15.8,0
CC(=O)c1c(C)c2cnc(Nc3ccc(N4CCNCC4)cn3)nc2n(C2CCCC2)c1=O [PALBOCICLIB],0,78.6,0,65.5
Nc1nc(F)nc2c1ncn2[C@@H]1O[C@H](COP(=O)(O)O)[C@@H](O)[C@@H]1O [FLUDARABINE PHOSPHATE],0,0,0,57.1
CC(C)C[C@H](NC(=O)[C@H](Cc1ccccc1)NC(=O)c1cnccn1)B(O)O [BORTEZOMIB],264,382,245,374
CN1CCC(CNc2ccc3ncc(-c4cccc(OC(F)(F)F)c4)n3n2)CC1 [SGI-1776],,144,,138
N#CCNC(=O)c1ccc(-c2ccnc(Nc3ccc(N4CCOCC4)cc3)n2)cc1,40.7,79.9,0,42
CN(C)C/C=C/C(=O)Nc1ccc(C(=O)Nc2cccc(Nc3ncc(Cl)c(-c4c[nH]c5ccccc45)n3)c2)cc1 [THZ1],102,240,51.7,190
C/C=C1\NC(=O)[C@H]2CSSCC/C=C/[C@H](CC(=O)N[C@H](C(C)C)C(=O)N2)OC(=O)[C@H](C(C)C)NC1=O [ROMIDEPSIN],231,416,165,398
CC(C)C[C@H](NC(=O)[C@H](CCc1ccccc1)NC(=O)CN1CCOCC1)C(=O)N[C@@H](Cc1ccccc1)C(=O)N[C@@H](CC(C)C)C(=O)[C@@]1(C)CO1 [CARFILZOMIB],295,404,286,398
